Laboratory results taken from patent publication US7820708B2, “Carboxamides” (Bayer CropScience AG, priority 2005, dated 2010).

Assays:
[1] = log P determination by HPLC on reversed-phase column (C 18), EEC Directive 79/831 Annex V.A8; assay type: physicochemical; settings: reversed-phase HPLC column (C 18); pH 2.3; 0.1% aqueous phosphoric acid and acetonitrile; 43° C.
Protocol: The log P values given in the Tables and Preparation Examples above are determined in accordance with EEC Directive 79/831 Annex V.A8 by HPLC (High Performance Liquid Chromatography) on a reversed-phase column (C 18). Temperature: 43° C. The determination is carried out in the acidic range at pH 2.3 using the mobile phases 0.1% aqueous phosphoric acid and acetonitrile; linear gradient from 10% acetonitrile to 90% acetonitrile. Calibration is carried out using unbranched alkan-2-ones (having 3 to 16 carbon atoms) with known log P values (determination of the log P values by the retention times using linear interpolation between two successive alkanones).

[2] = tested on: Alternaria solani; assay: Alternaria test (tomato)/protective; assay type: in vivo; settings: protective, application rate 1000 ppm, evaluation 7 days after inoculation
Protocol: (§1) To produce a suitable preparation of active compound, 1 part by weight of active compound is mixed with the stated amounts of solvent and emulsifier and the concentrate is diluted with water to the desired concentration.
To test for protective activity, young tomato plants are sprayed with the active compound preparation at the stated application rate. 1 day after the treatment, the plants are inoculated with a spore suspension of Alternaria solani and then remain at 100% relative atmospheric humidity and 20° C. for 24 h. The plants then remain at 96% relative atmospheric humidity and a temperature of 20° C.
Evaluation is carried out 7 days after the inoculation. 0% means an efficacy which corresponds to that of the control, whereas an efficacy of 100% means that no infection is observed.

[3] = tested on: Uromyces appendiculatus; assay: Uromyces test (bean)/protective; assay type: in vivo; settings: protective, application rate 100 ppm, evaluation 10 days after inoculation
Protocol: To produce a suitable preparation of active compound, 1 part by weight of active compound is mixed within the stated amounts of solvents and emulsifier and the concentrate is diluted with water to the desired concentration.
To test for protective activity, the young plants are sprayed with the active compound preparation at the stated application rate. After the spray coating has dried on, the plants are inoculated with an aqueous spore suspension of the bean rust pathogen Uromyces appendiculatus and then remain in an incubation cabin at about 20° C. and 100% relative atmospheric humidity for 1 day. The plants are then placed in a greenhouse at about 21° C. and a relative atmospheric humidity of about 90%.
Evaluation is carried out 10 days after the inoculation. 0% means an efficiency which corresponds to that of the control, whereas an efficacy of 100% means that no infection is observed.

[4] = tested on: Pyrenophora teres; assay: Pyrenophora teres test (barley)/protective; assay type: in vivo; settings: protective, application rate 500 ppm, evaluation 8 days after inoculation
Protocol: as §1
To test for protective activity, young plants are sprayed with the active compound preparation at the stated application rate. After the spray coating has dried on, the plants are sprayed with a conidia suspension of Pyrenophora teres. The plants remain in an incubation cabin at 20° C. and 100% relative atmospheric humidity for 48 hours.
The plants are then placed in a greenhouse at a temperature of about 20° C. and a relative atmospheric humidity of about 80%.
Evaluation is carried out 8 days after the inoculation. 0% means an efficacy which corresponds to that of the control, whereas an efficacy of 100% means that no infection is observed.

SMILES | chromatographic logP [1] | Efficacy in % [2] | Efficacy in % [3] | Efficacy in % [4]
CC(C)CC(C)c1ccccc1NC1CC1 (stereo not drawn) [III-1, N-cyclopropyl-2-(1,3-dimethylbutyl)aniline] | 5.33 | – | – | –
Cc1nn(C)c(F)c1C(=O)N(c1ccccc1C(C)CC(C)C)C1CC1 (stereo not drawn) [Compound 2] | 3.74 | 100% | 100% | –
Cc1nn(C)c(F)c1C(=O)N(c1ccccc1-c1ccc(Cl)cc1)C1CC1 [Compound 6] | 3.22 | – | 93% | 80%
Cn1cc(C(=O)N(c2ccc(F)cc2-c2ccc(Cl)c(Cl)c2)C2CC2)c(C(F)F)n1 [Compound 11] | 3.85 | 94% | – | –
CC(C)CC(C)c1ccccc1N(C(=O)c1cn(C)nc1C(F)F)C1CC1 (stereo not drawn) [Compound 3, N-cyclopropyl-3-(difluoromethyl)-N-[2-(1,3-dimethylbutyl)phenyl]-1-methyl-1H-pyrazol-4-carboxamide] | 3.89 | 94% | 100% | –
Cc1nn(C)c(F)c1C(=O)N(c1ccc(F)cc1-c1ccc(Cl)c(Cl)c1)C1CC1 [Compound 10] | 3.74 | 89% | – | 95%
Cn1cc(C(=O)N(c2ccccc2-c2ccc(Cl)cc2)C2CC2)c(C(F)F)n1 [Compound 7] | 3.38 | 89% | – | 95%
